# ChEMBL document CHEMBL1131586, “New antipsychotic agents with serotonin and dopamine antagonist properties based on a pyrrolo[2,1-b][1,3]benzothiazepine structure” (J Med Chem, 1998)
# Legend:
# D(3) dopamine receptor = D(3) dopamine receptor (Rattus norvegicus, UniProt P19020)
# Description: Binding affinity which represents concentration giving half-maximal inhibition of [3H]7-OH-DPAT binding to Dopamine receptor D3 in rat tissue homogenate
# [1] = target: Sodium-dependent dopamine transporter (Rattus norvegicus) (UniProt P23977); assay: Inhibition of dopamine uptake from dopamine uptake site
# Rattus norvegicus [2] = assay: Effect of compound on […], […] at 10 umol/kg upon subcutaneous administration; Catalepsy = 1/4; type: functional
# Rattus norvegicus [3] = assay: Effect of compound on […], […] at 3 umol/kg upon subcutaneous administration; Catalepsy = 0/4; type: functional
# Rattus norvegicus [4] = assay: Effect of compound on […], […] at 30 umol/kg upon subcutaneous administration; Catalepsy = 4/4; type: functional
# Rattus norvegicus [5] = assay: Effect of compound on apomorphine induced locomotor hyperactivity (APO-induced LMA), […] at 10 umol/kg upon subcutaneous administration; LMA (locomotor activity); type: functional
# Rattus norvegicus [6] = assay: Effect of compound on apomorphine induced locomotor hyperactivity (APO-induced LMA), […] at 3 umol/kg upon subcutaneous administration; LMA (locomotor activity); type: functional
# Rattus norvegicus [7] = assay: Effect of compound on apomorphine induced locomotor hyperactivity (APO-induced LMA), […] at 30 umol/kg upon subcutaneous administration; LMA (locomotor activity); type: functional
# Rattus norvegicus [8] = assay: Effect of compound on apomorphine induced locomotor hyperactivity (APO-induced LMA), […] at 1 umol/kg upon subcutaneous administration; LMA (locomotor activity); type: functional
# Rattus norvegicus [9] = assay: Effect of compound on […], […] at 1 umol/kg upon subcutaneous administration; Catalepsy = 0/4; type: functional
# Rattus norvegicus [10] = assay: Effect of compound on […], […] at 10 umol/kg upon subcutaneous administration; Catalepsy = 0/4; type: functional
# Rattus norvegicus [11] = assay: Effect of compound on […], […] at 30 umol/kg upon subcutaneous administration; Catalepsy = 0/4; type: functional
# [12] = target: T1, Serotonin 2 (5-HT2) receptor (Rattus norvegicus, UniProt P30994+P08909+P14842)
# Description: pKi value for 5-hydroxytryptamine 2 receptor binding site
# [13] = target: T1, Serotonin 2 (5-HT2) receptor; remark: listed apart in the source
# Description: Binding affinity which represents concentration giving half-maximal inhibition of [3H]ketanserin binding to 5-hydroxytryptamine 2 receptor rat tissue homogenate
# Chain of Sodium-dependent dopamine transporter (Rattus norvegicus) (P23977 whole entry, looked up): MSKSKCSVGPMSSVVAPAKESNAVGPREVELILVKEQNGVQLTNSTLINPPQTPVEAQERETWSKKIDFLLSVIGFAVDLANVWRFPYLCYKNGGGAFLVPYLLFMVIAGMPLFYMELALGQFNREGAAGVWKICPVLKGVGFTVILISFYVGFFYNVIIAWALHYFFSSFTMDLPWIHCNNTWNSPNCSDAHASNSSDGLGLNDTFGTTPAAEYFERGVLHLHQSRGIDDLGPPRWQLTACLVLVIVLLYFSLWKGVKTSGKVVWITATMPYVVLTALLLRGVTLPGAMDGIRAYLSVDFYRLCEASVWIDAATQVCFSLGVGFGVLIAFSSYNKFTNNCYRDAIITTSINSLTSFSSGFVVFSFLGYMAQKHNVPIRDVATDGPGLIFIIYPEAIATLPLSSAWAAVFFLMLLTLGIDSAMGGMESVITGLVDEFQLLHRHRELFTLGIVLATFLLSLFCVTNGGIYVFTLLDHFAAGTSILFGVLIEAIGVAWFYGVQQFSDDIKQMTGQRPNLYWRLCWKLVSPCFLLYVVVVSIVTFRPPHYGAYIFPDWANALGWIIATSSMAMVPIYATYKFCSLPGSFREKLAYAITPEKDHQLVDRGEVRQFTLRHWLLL
# Chain of D(3) dopamine receptor (P19020 whole entry): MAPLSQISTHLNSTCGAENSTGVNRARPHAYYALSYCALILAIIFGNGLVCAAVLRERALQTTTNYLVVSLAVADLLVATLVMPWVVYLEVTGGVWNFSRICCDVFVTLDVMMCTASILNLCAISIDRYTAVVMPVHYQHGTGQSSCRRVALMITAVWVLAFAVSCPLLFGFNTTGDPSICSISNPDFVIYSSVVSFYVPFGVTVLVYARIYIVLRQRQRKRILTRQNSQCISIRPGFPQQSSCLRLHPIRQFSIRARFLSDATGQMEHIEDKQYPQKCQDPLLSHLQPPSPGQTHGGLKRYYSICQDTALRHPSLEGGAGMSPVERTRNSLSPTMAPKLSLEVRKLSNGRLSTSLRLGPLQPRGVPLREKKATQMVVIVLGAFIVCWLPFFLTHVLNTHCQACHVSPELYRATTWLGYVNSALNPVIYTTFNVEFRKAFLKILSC
SMILES,Ki (D(3) dopamine receptor),IC50 [1],Catalepsy (Rattus norvegicus [2]),Catalepsy (Rattus norvegicus [3]),Catalepsy (Rattus norvegicus [4]),LMA (Rattus norvegicus [5]),LMA (Rattus norvegicus [6]),LMA (Rattus norvegicus [7]),LMA (Rattus norvegicus [8]),Catalepsy (Rattus norvegicus [9]),Catalepsy (Rattus norvegicus [10]),Catalepsy (Rattus norvegicus [11]),Log Ki [12],Ki [13]
CN1CCN(C2Cn3cccc3Sc3ccc(Cl)cc32)CC1 (racemic),4.1 nM,6.5 µM,–,–,–,–,–,–,–,–,–,–,–,–
CN1CCN(C2Cn3cccc3Sc3ccc(Cl)cc32)CC1.Cl.Cl (racemic),–,–,1,0,4,43,40,39,877,0,–,–,–,–
Cc1cc2c(s1)Nc1ccccc1N=C2N1CCN(C)CC1 [OLANZAPINE],–,–,–,–,–,47,–,4,323,0,0,0,-7.9,12 nM
